Reference: US20140017302A1, “OPTIMISED PREPARATIONS OF HIGHLY ADAPTABLE AGGREGATES” (priority 2011, published 2014)

Assays:
[1] = cited from earlier work; for pK (first value): buffer/salt of Table 1
[2] = Vesicularisation time: sonication of a crude suspension until opalescent/transparent, followed by turbidity; format: physicochemical
From the text: The term aggregate “adaptability” is herein closely related to “deformability” and can be measured using previously described methods (e.g. Wachter et al., 2008, J. Drug Targeting 16: 611). In principle, most of these methods assess the penetration of a nanoporous, semipermeable barrier by the tested aggregates in a suspension, presuming no significant aggregate fragmentation during penetration. In an alternative method, the kinetics of aggregate fragmentation under greater external stress is studied, e.g., during ultrasonication. An aggregate is considered to have an ultradeformable bilayer for purposes of the invention if its adaptability is close to or at about the highest value achievable without an appreciable, and normally spontaneous, aggregate fragmentation into smaller structures, e.g. micelles.
The term “vesicularisation time” refers to the time required to transform an originally opaque suspension (i.e. having an optical density >>3) to an opalescent/transparent suspension with a much lower optical density using external stress, e.g. generated with an ultrasound transducer, high-shear homogeniser (Ultra-Turrax®, IKA) or rotor-stator homogeniser. […]
A first consideration is that the chosen pH is far enough from the tested aggregate surface pKa,mem to exclude ionisation changes during a test; otherwise, experiments must be conducted at two or more constant, yet different, pH values and then analysed together allowing for the pH effects. […]
In a simpler and more qualitative alternative assay, one compares the test sample turbidity with an appropriate opalescent/transparent reference suspension turbidity. A series of readings taken for each representative sample at different times can likewise reveal temporal stability. Experimental data generated with this method confirmed the independency of the conclusions drawn from individual turbidity readouts for the preparations of the invention: within experimental error limits, the difference between the time required to generate more or less, but always similarly turbid suspension is generally the same. […]

[3] = Drug payload limit: terbinafine concentration at minimum vesicularisation time (FIG. 1 inset); format: physicochemical; settings: for payload (concentration at minimum vesicularisation time): phosphatidylcholine vesicles + 5 wt.-% ethanol, azeleate buffer 0.05 M
From the text: FIG. 1 is a schematic representation of experiments carried out to show an effect of buffer (ionic additive) selection on the vesicularisation time of reference (i.e. containing >90% pure soybean phosphatidylcholine) vesicles and of vesicles loaded with terbinafine as a function of the bulk pH. The results of an additional test series, in which an increasing amount of terbinafine was incorporated into phosphatidylcholine vesicles (at 10 wt-%-terbinafine concentration+5 wt.-% ethanol) dispersed in azeleate buffer (0.05 M) are shown in the Inset for pH=4.55±0.1 (diamonds) and pH=3.6±0.1 (down-arrow).

[4] = T=310 K, phospholipid plus drug ~10 w-%

| SMILES | pK1 ([1]; buffer of Table 4) | pK (first value) [1] | pK2 ([1]; buffer of Table 4) | also measured |
| --- | --- | --- | --- | --- |
| OCCN1CCCC1 [1-Pyrrolidineethanol (epolamine), 1-Pyrrolidineethanol] | 9.8 | 9.8 |  |  |
| CC(=O)O [Acetic acid] |  | 4.8 |  |  |
| O=C(O)CN(CCO)CCO [Bicine] | 8.5 |  | 1.9 |  |
| OCCN(CCO)C(CO)(CO)CO [Bis-TRIS] | 6.5 |  |  |  |
| C[N+](C)(C)CCO.[Cl-] [Choline, chloride] | 13.9 |  |  |  |
| CCNCC [Diethylamine] | 10.6 |  |  |  |
| O=C(O)[C@H](O)[C@@H](O)[C@H](O)[C@H](O)CO [Gluconic acid] |  | 3.6 |  |  |
| O=S(=O)(O)CCN1CCN(CCO)CC1 [HEPES] | 7.6 |  | 1.7 |  |
| Cl [Hydrochloric acid, sodium, Hydrochloric acid] |  | −9.3 |  |  |
| c1c[nH]cn1 [Imidazole] | 14.5 | 6.9 | 6.9 |  |
| NCCCC[C@H](N)C(=O)O [Lysine] | 10.5 |  | 9.1 | pK3 ([1]; buffer of Table 4): 2.2 |
| OCCN1CCOCC1 [Morpholinoethanol] | 7.4 | 7.4 |  |  |
| O=S(=O)(O)CCN1CCN(CCS(=O)(=O)O)CC1 [PIPES] | 7.1 |  | 0.4 |  |
| O=C1CC[C@@H](C(=O)O)N1 [Pyroglutamic acid (pidolic acid), Pyroglutamic acid] |  | 3.5 |  |  |
| [Na+].[OH-] [Sodium hydroxyde, NaCl, Sodium hydroxyde] |  | 13.0 |  |  |
| O=S(=O)(O)O [Sulphuric acid] | −3 |  | 1.9 |  |
| O=C(O)CNC(CO)(CO)CO [Tricine] | 8.2 |  | 2.3 |  |
| O=C(O)CCCCCCCC(=O)O [azaleic acid, Azelaic acid] |  |  |  | log P [1]: > 1 |
| O=C(c1ccccc1)c1ccc2n1CCC2C(=O)O (stereo not drawn) [ketorolac, reference compound] |  |  |  | log Pmem^I ([1]; best estimates): ~0.8; log Pmem^N ([1]; best estimates): ~2.3; pK ([1]; best estimates): 3.5; pKa,mem ([1]; best estimates): ~5.5 |
| Cc1ccc(S(=O)(=O)O)cc1 [p-Toluenesulfonic acid] |  | 0.7 |  |  |
| CN(C/C=C/C#CC(C)(C)C)Cc1cccc2ccccc12 [terbinafine] |  |  |  | vesicularisation time ([2]; 10 wt.-% total amphipat including 20 rel-% terbinafine, phosphate buffer, pH~4.4): exceeds 200 s; sonication time (vesicularisation time) ([2]; terbinafine + phosphatidylcholine, 0.1 M phosphate buffer, pH=5.7, fails to produce small aggregates above the precipitate): exceeding 1400 s; time needed to prepare drug-loaded aggregates ([2]; terbinafine + phosphatidylcholine, phosphate buffer, pH=5.2): around 700 s; payload limit (concentration at minimum vesicularisation time) ([3]; aggregate suspensions in phosphate buffer of comparable pH): < 10 wt.-%; higher payload in azeleate buffer compared with phosphate buffer ([3]; comparable pH): at least 50%; payload (concentration at minimum vesicularisation time) ([3]; pH=3.6): ~20%; payload (concentration at minimum vesicularisation time) ([3]; pH=4.55): ~15%; de/protonation constant in a membrane, pKa,mem [1, 4]: 5.5; de/protonation constant in the bulk, pK [1, 4]: 7.05; water-membrane partition ratio, ionised drug form, log Pmem^I [1, 4]: 3.78; water-membrane partition ratio, neutral drug form, log Pmem^N [1, 4]: 5.19 |
